Experiments:
Type in all cases: in vivo
[1] = test system: Abutilon theophrasti; test: Greenhouse pre-emergence (PRE) herbicidal test on ABUTH; settings: for % activity solo application: ABUTH
Outline: (§1)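 Pre-emergence greenhouse assay: sown loamy-sand pots (humus approx. 3.0%) were kept under transparent hoods until rooting, then grown at species-appropriate 10-25° C or 20-35° C. Response ratings of 0 (no damage) to 100 (no plants emerged) were recorded 20 days after application.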

[2] = test system: Amaranthus retroflexus; test: Greenhouse pre-emergence (PRE) herbicidal test on AMARE; settings: 20 DAT; for % activity solo application: PRE, AMARE
Outline: as §1

[3] = test system: Ambrosia artemisiifolia; test: Greenhouse pre-emergence (PRE) herbicidal test on AMBEL; settings: for % activity solo application / % activity: PRE; for % activity solo application: AMBEL; for % activity: 10 DAT
[4] = test system: Commelina benghalensis; test: Greenhouse pre-emergence (PRE) herbicidal test on COMBE; settings: 20 DAT
Outline: as §1

[5] = test system: Euphorbia heterophylla; test: Greenhouse pre-emergence (PRE) herbicidal test on EPHHL; settings: 20 DAT; for inhibition at 25 g/ha: use rate 25 gai/ha
Outline: as §1

[6] = test system: Lolium multiflorum; test: Greenhouse pre-emergence (PRE) herbicidal test on LOLMU; settings: 20 DAT; for % activity solo application: PRE, LOLMU
Outline: as §1

[7] = test system: Setaria viridis; test: Greenhouse pre-emergence (PRE) herbicidal test on SETVI; settings: 20 DAT; for % activity solo application: PRE, SETVI
Outline: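 Herbicidal effect is scored from 0 (no damage) to 100 (no emergence or above-ground parts destroyed), 20 days after treatment. Application is pre-emergent onto sown pots, with components given as a 5% by weight emulsion concentrate in the spray liquor.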

[8] = test system: Abutilon theophrasti; test: Greenhouse post-emergence (POST) herbicidal test on ABUTH; settings: 20 DAT
Outline: (§2)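 Visual damage rating on a 0–100 scale, 0 meaning normal growth and 100 complete kill of above-ground parts, taken 20 days after treatment. Spray applied post-emergence to plants 3–15 cm tall in loamy sand with approximately 3.0% humus.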

[9] = test system: Amaranthus retroflexus; test: Greenhouse post-emergence (POST) herbicidal test on AMARE; settings: 20 DAT; for inhibition at 25 g/ha: use rate 25 gai/ha
Outline: as §2

[10] = test system: Echinochloa crus-galli; test: Greenhouse post-emergence (POST) herbicidal test on ECHCG; settings: Echinochloa crus-galli, post-emergence, 480 h, ECHCG POST, 20 DAT, use rate 25 gai/ha
Outline: as §2

[11] = test system: Euphorbia heterophylla; test: Greenhouse post-emergence (POST) herbicidal test on EPHHL; settings: 20 DAT; for % activity solo application: POST, EPHHL
Outline: as §2

[12] = test system: Geranium pusillum; test: Greenhouse post-emergence (POST) herbicidal test on GERPU; settings: Geranium pusillum, post-emergence, 480 h, 20 DAT
Outline: as §2

[13] = test system: Ipomoea hederacea; test: Greenhouse post-emergence (POST) herbicidal test on IPOHE; settings: 20 DAT; for % activity solo application: POST, IPOHE
Outline: as §2

[14] = test system: Geranium pusillum; test: Greenhouse pre-emergence (PRE) herbicidal test on GERPU; settings: PRE, 20 DAT; for % activity: GERPU
Description: (§3) The culture containers used were plastic pots containing loamy sand with approximately 3.0% of humus as substrate. The seeds of the test plants were sown separately for each species.
(§4) For the pre-emergence treatment, the active compounds, suspended or emulsified in water, were applied directly after sowing by means of finely distributing nozzles. The containers were irrigated gently to promote germination and growth and subsequently covered with transparent plastic hoods until the plants had rooted. This cover caused uniform germination of the test plants unless this was adversely affected by the active compounds.
(§5) Depending on the species, the plants were kept at 10-25° C. and 20-35° C., respectively.
(§6) The test period extended over 2 to 4 weeks. During this time, the plants were tended and their response to the individual treatments was evaluated.
(§7) Evaluation was carried out using a scale from 0 to 100. 100 means no emergence of the plants, or complete destruction of at least the above-ground parts, and 0 means no damage or normal course of growth. A good herbicidal activity is given at values of at least 70, and very good herbicidal activity is given at values of at least 85.
(§8) If not stated differently, the respective components A and B, and if appropriate, C were formulated as a 5% by weight strength emulsion concentrate and, with addition of the amount of solvent system, introduced into the spray liquor used for applying the active compound.
(§9) As indicated application was either post emergent (POST) at the respective growth stage (GS) of the weed (BBCH code), or pre-emergent (PRE).
(§10) Assessment was 20 days after treatment (DAT).

[15] = test system: Alopecurus myosuroides; test: Greenhouse pre-emergence (PRE) herbicidal test on ALOMY; settings: PRE, ALOMY, 20 DAT
Outline: as §1

[16] = test system: Echinochloa crus-galli; test: Greenhouse pre-emergence (PRE) herbicidal test on ECHCG; settings: PRE; for % activity solo application: ECHCG, 20 DAT; for % activity: 10 DAT
[17] = test system: Digitaria sanguinalis; test: Greenhouse post-emergence (POST) herbicidal test on DIGSA; settings: POST, DIGSA, 20 DAT
Outline: as §2

[18] = test system: AMAPA; test: Greenhouse pre-emergence (PRE) herbicidal test on AMAPA
[19] = test system: Ipomoea hederacea; test: Greenhouse pre-emergence (PRE) herbicidal test on IPOHE; settings: Ipomoea hederacea, pre-emergence, 480 h, PRE, IPOHE, 20 DAT
Description: as §3, §4, §5, §6, §7, §8, §9, §10

CC(C)N(C(=O)COc1nnc(C(F)(F)F)s1)c1ccc(F)cc1 [Flufenacet, flufenacet]
inhibition at 12.5 g/ha ([1]; Abutilon theophrasti, pre-emergence, 480 h, ABUTH PRE, 20 DAT, use rate 12.5 gai/ha): 0% | inhibition at 12.5 g/ha ([2]; Amaranthus retroflexus, pre-emergence, 480 h, AMARE PRE, use rate 12.5 gai/ha): 0% | inhibition at 12.5 g/ha ([3]; Ambrosia artemisiifolia, pre-emergence, 480 h, AMBEL PRE, 20 DAT, use rate 12.5 gai/ha): 0% | inhibition at 12.5 g/ha ([4]; Commelina benghalensis, pre-emergence, 480 h, COMBE PRE, use rate 12.5 gai/ha): 10% | inhibition at 25 g/ha ([4]; Commelina benghalensis, pre-emergence, 480 h, COMBE PRE, use rate 25 gai/ha): 35% | inhibition at 12.5 g/ha ([5]; Euphorbia heterophylla, pre-emergence, 480 h, EPHHL PRE, use rate 12.5 gai/ha): 10% | inhibition at 25 g/ha ([5]; Euphorbia heterophylla, pre-emergence, 480 h, EPHHL PRE): 10% | inhibition at 12.5 g/ha ([6]; Lolium multiflorum, pre-emergence, 480 h, LOLMU PRE, use rate 12.5 gai/ha): 0% | inhibition at 25 g/ha ([6]; Lolium multiflorum, pre-emergence, 480 h, LOLMU PRE, use rate 25 gai/ha): 35% | inhibition at 25 g/ha ([7]; Setaria viridis, pre-emergence, 480 h, SETVI PRE, use rate 25 gai/ha): 65% | inhibition at 25 g/ha ([8]; Abutilon theophrasti, post-emergence, 480 h, ABUTH POST, use rate 25 gai/ha): 0% | inhibition at 12.5 g/ha ([9]; Amaranthus retroflexus, post-emergence, 480 h, AMARE POST, use rate 12.5 gai/ha): 15% | inhibition at 25 g/ha ([9]; Amaranthus retroflexus, post-emergence, 480 h, AMARE POST): 25% | inhibition at 25 g/ha [10]: 85% | inhibition at 12.5 g/ha ([11]; Euphorbia heterophylla, post-emergence, 480 h, EPHHL POST, use rate 12.5 gai/ha): 0% | inhibition at 12.5 g/ha ([12]; GERPU POST, use rate 12.5 gai/ha): 5% | inhibition at 12.5 g/ha ([13]; Ipomoea hederacea, post-emergence, 480 h, IPOHE POST, use rate 12.5 gai/ha): 0% | inhibition at 25 g/ha ([13]; Ipomoea hederacea, post-emergence, 480 h, IPOHE POST, use rate 25 gai/ha): 0%

COc1cc(OC)nc(Oc2cccc(Oc3nc(OC)cc(OC)n3)c2C(=O)O)n1 [Bispyribac-Sodium, bispyribac-sodium]
inhibition at […] ([1]; Abutilon theophrasti, pre-emergence, 480 h, PRE, use rate 7.5 gai/ha, 20 DAT, read-out: % activity): 5% | inhibition at 15 g/ha ([1]; Abutilon theophrasti, pre-emergence, 480 h, PRE, use rate 15 gai/ha, 20 DAT, read-out: % activity): 45% | inhibition at 15 g/ha ([4]; Commelina benghalensis, pre-emergence, 480 h, PRE, use rate 15 gai/ha): 80% | inhibition at […] ([14]; Geranium pusillum, pre-emergence, 480 h, use rate 7.5 gai/ha): 75%

CCc1cccc(C)c1N(C(=O)CCl)[C@@H](C)COC [S-Metolachlor, S-metolachlor]
% activity solo application ([1]; PRE, 25 gai/ha, 20 DAT): 0% | % activity solo application ([1]; PRE, 50 gai/ha, 20 DAT): 0% | % activity solo application ([15]; 25 gai/ha): 0% | % activity solo application ([15]; 50 gai/ha): 0% | % activity solo application ([2]; 25 gai/ha): 20% | % activity solo application ([2]; 50 gai/ha): 20% | % activity solo application ([3]; 25 gai/ha, 20 DAT): 0% | % activity solo application ([3]; 50 gai/ha, 20 DAT): 0% | % activity solo application ([4]; PRE, COMBE, 25 gai/ha): 10% | % activity solo application ([16]; 25 gai/ha): 20% | % activity solo application ([16]; 50 gai/ha): 50% | % activity solo application ([5]; PRE, EPHHL, 25 gai/ha): 0% | % activity solo application ([5]; PRE, EPHHL, 50 gai/ha): 0% | % activity solo application ([6]; 25 gai/ha): 0% | % activity solo application ([6]; 50 gai/ha): 0% | % activity solo application ([7]; 25 gai/ha): 10% | % activity solo application ([7]; 50 gai/ha): 75% | % activity solo application ([8]; POST, ABUTH, 25 gai/ha): 0% | % activity solo application ([8]; POST, ABUTH, 50 gai/ha): 0% | % activity solo application ([9]; POST, AMARE, 25 gai/ha): 5% | % activity solo application ([9]; POST, AMARE, 50 gai/ha): 60% | % activity solo application ([17]; 25 gai/ha): 0% | % activity solo application ([17]; 50 gai/ha): 10% | % activity solo application ([11]; 25 gai/ha): 0% | % activity solo application ([11]; 50 gai/ha): 5% | % activity solo application ([13]; 25 gai/ha): 0% | % activity solo application ([13]; 50 gai/ha): 0%

icafolin
% activity ([1]; PRE, use rate 12.5 gai/ha, 10 DAT): 20% | % activity ([3]; use rate 25 gai/ha): 10% | % activity ([3]; use rate 50 gai/ha): 15% | % activity ([16]; use rate 12.5 gai/ha): 25% | % activity ([16]; use rate 50 gai/ha): 30% | % activity ([18]; use rate 25 gai/ha, 10 DAT): 10%

O=C(Nc1ccc(F)cc1)c1cccc(Oc2cccc(C(F)(F)F)c2)n1 [Picolinafen, picolinafen]
% activity ([15]; use rate 50 gai/ha): 25% | % activity ([14]; use rate 50 gai/ha): 15% | % activity ([14]; use rate 100 gai/ha): 40%

Cc1ccccc1CO[C@@H]1C[C@@]2(C(C)C)CC[C@]1(C)O2 (racemic) [Cinmethylin, cinmethylin]
inhibition at 25 g/ha ([5]; Euphorbia heterophylla, pre-emergence, 480 h, PRE, EPHHL): 0% | inhibition at 50 g/ha ([5]; Euphorbia heterophylla, pre-emergence, 480 h, PRE, EPHHL, use rate 50 gai/ha): 0% | inhibition at 25 g/ha ([19]; use rate 25 gai/ha): 0% | inhibition at 50 g/ha ([19]; use rate 50 gai/ha): 0% | inhibition at 50 g/ha ([8]; Abutilon theophrasti, post-emergence, 480 h, POST, ABUTH, use rate 50 gai/ha): 0% | inhibition at 100 g/ha ([8]; Abutilon theophrasti, post-emergence, 480 h, POST, ABUTH, use rate 100 gai/ha): 0% | inhibition at 25 g/ha ([9]; Amaranthus retroflexus, post-emergence, 480 h, POST, AMARE): 0% | inhibition at 100 g/ha ([9]; Amaranthus retroflexus, post-emergence, 480 h, POST, AMARE, use rate 100 gai/ha, read-out: % activity): 30% | inhibition at 25 g/ha ([12]; POST, GERPU, use rate 25 gai/ha): 10%

O=C(O)c1c(Cl)ccc2cc(Cl)cnc12 [Quinclorac, quinclorac]
inhibition at 500 g/ha ([4]; Commelina benghalensis, pre-emergence, 480 h, PRE, use rate 500 gai/ha): 65% | inhibition at 125 g/ha ([9]; Amaranthus retroflexus, post-emergence, 480 h, POST, use rate 125 gai/ha): 50% | inhibition at 62.5 g/ha ([18]; pre-emergence, 480 h, use rate 62.5 gai/ha, 20 DAT): 60% | inhibition at 125 g/ha ([18]; pre-emergence, 480 h, use rate 125 gai/ha, 20 DAT): 65% | inhibition at 250 g/ha ([18]; pre-emergence, 480 h, use rate 250 gai/ha, 20 DAT): 65% | inhibition at 500 g/ha ([18]; pre-emergence, 480 h, use rate 500 gai/ha, 20 DAT): 70%
